One experiment deals with rabbit skeletal myofibrils (fast skeletal myofibrils). Kind of experiment: Activation of fast skeletal myofibrils (PUMA assay, PK/LDH-coupled ATPase at pCa25). The note with it: AC1.4 determined according to the procedure of Example 39; reported as class symbols. In kind it is biochemical. Put shortly: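 ATPase activity of Triton-washed rabbit skeletal myofibrils, roughly 90% fast fibres, tracked by NADH loss at 340 nm through a PK/LDH-coupled ADP-regenerating system. Calcium set to 25% of maximal activity (pCa25), in PIPES 12 mM pH 6.8 with 2 mM MgCl2 and 1 mM DTT; AC1.4 reported.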
In the case of `NC(=O)c1cccc(-c2ccc(NCC(CC3OCCO3)c3ccccc3F)nn2)c1` (stereo not shown), the “Mean AC1.4” value is “D (D=>20 uM)”.
Still for that read-out and setting: the same measure for `CC(C)(CNc1ccc(-c2ccc3[nH]nc(N)c3c2)nn1)c1ccc(C(N)=O)cc1`: “D (D=>20 uM)”; for `N#Cc1cncc(-c2ccc(NCC3(c4ccc(F)cc4)CC3)nn2)c1` [5-[6-({[(4-fluorophenyl)cyclopropyl]meth-yl}amino)pyridazin-3-yl]pyridine-3-carbonitrile]: “B (B=1-10 uM)”.
Take `CC(C)(CNc1ccc(-c2cccc(C#N)c2)nn1)c1ccc(F)cc1` [3-(6-{[2-(4-fluorophenyl)-2-methylpropyl]amino}pyridazin-3-yl)benzenecarbonitrile]: the “Mean AC1.4” value is on record as “B (B=1-10 uM)”.
Still for that read-out and setting: the same measure for `CC(C)(CNc1ccc(-c2ccc3[nH]cnc3c2)nn1)c1ccc(F)cc1` [(6-benzimidazol-5-ylpyridazin-3-yl)[2-(4-fluorophenyl)-2-methylpropyl]amine]: “A (A=<1 uM)”.
For the compound `CC(C)(CNc1ccc(-c2cccc(C(=O)NCC(O)CO)c2)nn1)c1ccc(F)cc1` (stereo not shown) [N-(2,3-dihydroxypropyl)[3-(6-{[2-(4-fluorophenyl)-2-methylpropyl]amino}pyridazin-3-yl)phenyl]carboxamide], the “Mean AC1.4” value was “B (B=1-10 uM)”.
With `CC(C)(CNc1ccc(C(=O)N2CCNC(C(N)=O)C2)nn1)c1ccc(F)cc1` (stereo not shown) [4-[(6-{[2-(4-fluorophenyl)-2-methylpropyl]amino}pyridazin-3-yl)carbonyl]piperazine-2-carboxamide], the “Mean AC1.4” value is reported as “D (D=>20 uM)”.
As to `CC(C)(CNc1ccc(-c2cccc(C(=O)N3CCOCC3)c2)nn1)c1ccc(F)cc1` [3-(6-{[2-(4-fluorophenyl)-2-methylpropyl]amino}pyridazin-3-yl)phenyl morpholin-4-yl ketone], the “Mean AC1.4” value is given as “B (B=1-10 uM)”.
The same measure, in the same setting: the same measure for `CC(C)(CNc1ccc(-c2ccc3[nH]nc(N)c3c2)nn1)c1ncccc1F` [[6-(3-amino(1H-indazol-5-yl))pyridazin-3-yl][2-(3-fluoro(2-pyridyl))-2-methylpropyl]amine]: “B (B=1-10 uM)”; for `CN(C)Cc1cccc(C(C)(C)CNc2ccc(-c3ccc4[nH]nc(N)c4c3)nn2)c1`: “D (D=>20 uM)”.
Same read-out and setting: the same measure for `CC(C)(CNc1ccc(C(=O)N2CCCCC2C(N)=O)nn1)c1ccc(F)cc1` (stereo not shown) [1-[(6-{[2-(4-fluorophenyl)-2-methylpropyl]amino}pyridazin-3-yl)carbonyl]piperidine-2-carboxamide]: “D (D=>20 uM)”.
Still for that read-out and setting: next, `Fc1cccnc1C1(CNc2ccc(-c3ccc4[nH]cnc4c3)nn2)CCC1` [(6-benzimidazol-5-ylpyridazin-3-yl){[(3-fluoro(2-pyridyl))cyclobutyl]methyl}amine]: “A (A=<1 uM)”; `NC(=O)c1cccc(-c2ccc(NCC3(c4cccc(C(N)=O)n4)CCC3)nn2)c1`: “D (D=>20 uM)”; `O=C(O)c1cc(C(=O)O)cc(-c2ccc(NCC3(c4ncccc4F)CCC3)nn2)c1`: “D (D=>20 uM)”.

The experiment is the same for the next values; noted with them: median AC1.4 class, procedure of Example 39.
Take `O=c1[nH]nc(-c2cnc(-c3ccc(NCC4(c5ncccc5F)CCC4)nn3)s2)o1` [5-{2-[6-({[(3-fluoro-2-pyridyl)cyclobutyl]methyl}ami-no)pyridazin-3-yl]-1,3-thiazol-5-yl}-1,3,4-oxadiazolin-2-one]: the “Mean AC1.4” value was “B (B=1-10 uM)”.
The same measure, in the same setting: next, `N#Cc1ccc(F)c(-c2ccc(NC[C@]3(c4ncccc4F)C[C@H](F)C3)nn2)c1` [4-fluoro-3-[6-({[3-fluoro-1-(3-fluoro(2-pyridyl))cyclobutyl]methyl}ami-no)pyridazin-3-yl]benzenecarbonitrile]: “B (B=1-10 uM)”.
For `N#Cc1ccc(F)c(-c2ccc(NC3(c4ncccc4F)CCC3)nn2)c1`, the “Mean AC1.4” value is listed as “B (B=1-10 uM)”.
Still for that read-out and setting: the same measure for `CC(C)(Nc1ccc(-c2ccc3[nH]ncc3c2)nn1)c1ccccc1` [(6-(1H-indazol-5-yl)pyridazin-3-yl)(1-methyl-1-phenylethyl)amine]: “B (B=1-10 uM)”.
Same read-out and setting: next, `COc1ccnc(C2(Nc3ccc(-c4cccc(C(N)=O)c4)nn3)CCC2)c1`: “D (D=>20 uM)”.
Same read-out and setting: next, `NCCn1nnc(-c2ccc(NCC3(c4ncccc4F)CCC3)nn2)n1` [{6-[2-(2-aminoethyl)(1,2,3,4-tetraazol-5-yl)]pyridazin-3-yl}{[(3-fluoro(2-pyridyl))cyclobutyl]methyl}amine]: “D (D=>20 uM)”; `NC(=O)c1ccc(F)c(-c2ccc(NC3(c4ccc(F)cc4)CCC3)nn2)c1`: “A (A=<1 uM)”; `O=C(NCc1cnc(-c2ccc(NCC3(c4ncccc4F)CCC3)nn2)s1)c1ccn[nH]1` [N-({2-[6-({[(3-fluoro(2-pyridyl))cyclobutyl]methyl}ami-no)pyridazin-3-yl](1,3-thiazol-5-yl)}methyl)pyrazol-5-ylcarboxamide]: “A (A=<1 uM)”.
On to `CC(=O)Nc1ncc(-c2ccc(NCC3(c4ncccc4F)CCC3)nn2)cn1`, for which the “Mean AC1.4” value is “C (C=10-20 uM)”.
Take `O=c1[nH]c(-c2cnc(-c3ccc(NCC4(c5ncccc5F)CCC4)nn3)s2)no1` [3-{2-[6-({[(3-fluoro-2-pyridyl)cyclobutyl]methyl}ami-no)pyridazin-3-yl]-1,3-thiazol-5-yl}-1,2,4-oxadiazolin-5-one]: the “Mean AC1.4” value is “B (B=1-10 uM)”.
Same read-out and setting: the same measure for `O=C(NC1CCS(=O)(=O)C1)c1cnc(-c2ccc(NCC3(c4ncccc4F)CCC3)nn2)s1` (stereo not shown) [N-(1,1-dioxothiolan-3-yl){2-[6-({[(3-fluoro(2-pyridyl))cyclobutyl]methyl}ami-no)pyridazin-3-yl](1,3-thiazol-5-yl)}carboxamide]: “A (A=<1 uM)”; for `O=C1CN(C(=O)c2cnc(-c3ccc(NCC4(c5ncccc5F)CCC4)nn3)s2)CCN1` [4-({2-[6-({[(3-fluoro-2-pyridyl)cyclobutyl]methyl}ami-no)pyridazin-3-yl]-1,3-thiazol-5-yl}carbonyl)piperazin-2-one]: “C (C=10-20 uM)”; for `CC(C)(CNc1ccc(-c2ncc(CNC(=O)[C@@H]3CCCN3)s2)nn1)c1ncccc1F` [((2S)pyrrolidin-2-yl)-N-{[2-(6-{[2-(3-fluoro(2-pyridyl))-2-methylpropyl]amino}pyridazin-3-yl)(1,3-thiazol-5-yl)]methyl}carboxamide]: “B (B=1-10 uM)”.
The same measure, in the same setting: the same measure for `NC(=O)c1ccc(O)c(-c2ccc(NC[C@]3(c4ncccc4F)C[C@H](F)C3)nn2)c1` [3-[6-({[3-fluoro-1-(3-fluoro(2-pyridyl))cyclobutyl]methyl}ami-no)pyridazin-3-yl]-4-hydroxybenzamide]: “B (B=1-10 uM)”.
Still for that read-out and setting: the same measure for `O=CN1CC(F)(F)C[C@H]1C(=O)NCc1cnc(-c2ccc(NCC3(c4ncccc4F)CCC3)nn2)s1` [((2S)-4,4-difluoro-1-formylpyrrolidin-2-yl)-N-({2-[6-({[(3-fluoro(2-pyridyl))cyclobutyl]methyl}ami-no)pyridazin-3-yl](1,3-thiazol-5-yl)}methyl)carboxamide]: “A (A=<1 uM)”.
As for `O=C(NCC(O)CO)c1cnc(-c2ccc(NCC3(c4ncccc4F)CCC3)nn2)s1` (stereo not shown) [N-(2,3-dihydroxypropyl){2-[6-({[(3-fluoro(2-pyridyl))cyclobutyl]methyl}ami-no)pyridazin-3-yl](1,3-thiazol-5-yl)}carboxamide], the “Mean AC1.4” value was “A (A=<1 uM)”.
`CC(=O)c1ccc(NCC2(c3ncccc3F)CCC2)nn1`: the “Mean AC1.4” value was “D (D=>20 uM)”.

The same experiment, now with this note: median AC1.4 reported as class; procedure of Example 39.
On to `NC1(C(=O)NCc2cnc(-c3ccc(NCC4(c5ncccc5F)CCC4)nn3)s2)COC1` [(3-aminooxetan-3-yl)-N-({2-[6-({[(3-fluoro(2-pyridyl))cyclobutyl]methyl}ami-no)pyridazin-3-yl](1,3-thiazol-5-yl)}methyl)carboxamide], for which the “Mean AC1.4” value is “A (A=<1 uM)”.
For `Nc1ncc(-c2ccc(NC[C@]3(c4ncccc4F)C[C@H](F)C3)nn2)cc1C(F)(F)F` [{6-[6-amino-5-(trifluoromethyl)(3-pyridyl)]pyridazin-3-yl}{[3-fluoro-1-(3-fluoro(2-pyridyl))cyclobutyl]methyl}amine], the “Mean AC1.4” value is given as “B (B=1-10 uM)”.
Still for that read-out and setting: next, `CNC(=O)c1ccc(NCC2(c3ncccc3F)CCC2)nn1` [[6-({[(3-fluoro(2-pyridyl))cyclobutyl]methyl}ami-no)pyridazin-3-yl]-N-methylcarboxamide]: “D (D=>20 uM)”; `CC(=O)N1CCN(Cc2cnc(-c3ccc(NCC4(c5ncccc5F)CCC4)nn3)s2)CC1` [1-acetyl-4-({2-[6-({[(3-fluoro(2-pyridyl))cyclobutyl]methyl}ami-no)pyridazin-3-yl](1,3-thiazol-5-yl)}methyl)piperazine]: “D (D=>20 uM)”; `OCCNCc1cnc(-c2ccc(NCC3(c4ncccc4F)CCC3)nn2)s1` [2-[({2-[6-({[(3-fluoro-2-pyridyl)cyclobutyl]methyl}ami-no)pyridazin-3-yl]-1,3-thiazol-5-yl}methyl)amino]ethan-1-ol]: “B (B=1-10 uM)”.
Still for that read-out and setting: next, `NC(=O)c1cccc(-c2ccc(NC[C@]3(c4ncccc4F)C[C@H](F)C3)nn2)c1O` [3-[6-({[3-fluoro-1-(3-fluoro(2-pyridyl))cyclobutyl]methyl}ami-no)pyridazin-3-yl]-2-hydroxybenzamide]: “A (A=<1 uM)”.
Still for that read-out and setting: next, `CC(=O)N1CCc2nc(-c3ccc(NCC4(c5ncccc5F)CCC4)nn3)sc2C1` [5-acetyl-2-[6-({[(3-fluoro(2-pyridyl))cyclobutyl]methyl}ami-no)pyridazin-3-yl]-4,5,6,7-tetrahydro-1,3-thiazolo[5,4-c]pyridine]: “D (D=>20 uM)”.
Consider `O=C(Nc1nncs1)c1ccc(NCC2(c3ncccc3F)CCC2)nn1` [[6-({[(3-fluoro(2-pyridyl))cyclobutyl]methyl}ami-no)pyridazin-3-yl]-N-(1,3,4-thiadiazol-2-yl)carboxamide], for which the “Mean AC1.4” value is recorded as “B (B=1-10 uM)”.
On the same count and under the same terms, the same measure for `Cn1ccc(NC(=O)c2ccc(NCC3(c4ncccc4F)CCC3)nn2)n1` [[6-({[(3-fluoro(2-pyridyl))cyclobutyl]methyl}ami-no)pyridazin-3-yl]-N-(1-methylpyrazol-3-yl)carboxamide]: “C (C=10-20 uM)”.
